The values that follow come from patent publication US8314150B2, “Kinase protein binding inhibitors” (priority 2008, dated 2012).

SMILES strings stand for the structures.

One experiment relates to Panc-1 tumor cells. Put plainly: Panc-1 subcutaneous tumor growth in nude mice. Type of experiment: in vivo. The note with it: 30 mg/kg each, daily intraperitoneal. The procedure:
(§1) Cell Viability Assay—The Cells were treated with peptides for 24 hours at different peptide concentrations. The 3-(4,5-dimethylthiazol-2-yl)-5-(3-carboxymethoxyphenyl)-2-(4-sulfophenyl)-2H-tetrazolium compound from Promega Viability kit (Madison, Ill.) was added, and the cells were incubated at 37° C. for 1-2 hours. The optical density on 96-plate was analyzed with a microplate reader at 490 nm to determine cell viability. In addition, cells were stained with trypan blue after 24 hours of treatment with Y15 and the percent of cells that stained positive were determined with a hemacytometer. […] Then 2% SDS was added to the dried plated and OD at 590 nm was measured for detecting cell adhesion. […] Protein concentrations were determined using a Bio-Rad Kit. The boiled samples were loaded on Ready SDS-10% PAGE gels (Bio Rad, Inc) and used for Western blot analysis with the protein-specific antibody. […] Detachment Assay—Cells were plated with and without inhibitors for 24 hours, and detached and attached cells were counted in a hemocytometer. We calculated the percent of detachment by dividing the number of detached cells by the total number of cells. The percent of detached cells was calculated in three independent experiments. […] For each experiment 300 cells per treatment were counted. […]

The subject of a further experiment is caspase-3. Put plainly: Caspase-3 immunohistochemistry of Panc-1 tumors. Type of experiment: in vivo, mice. Conditions: 30 mg/kg, no significant increase. The procedure:
as §1

For the next experiment, the system named is Y397-FAK phosphorylation. The note with it: cited from earlier work.
The next experiment has as its system cell growth and survival. Conditions: cited from earlier work.
Another experiment deals with IGFR kinase (Homo sapiens, UniProt P08069). The note with it: cited from earlier work.
The subject of experiment [1] is BT474 cells. Put plainly: Apoptosis assay (Hoechst staining), BT474. It is filed as cell-based. The procedure: (§2) Cell Viability Assay—The Cells were treated with peptides for 24 hours at different peptide concentrations. The 3-(4,5-dimethylthiazol-2-yl)-5-(3-carboxymethoxyphenyl)-2-(4-sulfophenyl)-2H-tetrazolium compound from Promega Viability kit (Madison, Ill.) was added, and the cells were incubated at 37° C. for 1-2 hours. The optical density on 96-plate was analyzed with a microplate reader at 490 nm to determine cell viability. In addition, cells were stained with trypan blue after 24 hours of treatment with Y15 and the percent of cells that stained positive were determined with a hemacytometer. Cell adhesion assay—The poly-L-Lysine or Collagen (5 μg/ml) coated 96-well plates were blocked with the blocking buffer (medium with 0.5% BSA) for 1 hour at 37 C. The cells were pre-treated with drugs for 3 hours and plated for adhesion at 4×10^5 cells. Cells were incubated at 37 C for 1 hour, fixed in 3.7% formaldehyde, washed in 0.1% BSA in PBS and stained with crystal violet (5 mg/ml in 2% ethanol) for 10 minutes. Then 2% SDS was added to the dried plated and OD at 590 nm was measured for detecting cell adhesion. […] Protein concentrations were determined using a Bio-Rad Kit. The boiled samples were loaded on Ready SDS-10% PAGE gels (Bio Rad, Inc) and used for Western blot analysis with the protein-specific antibody. […] Detachment Assay—Cells were plated with and without inhibitors for 24 hours, and detached and attached cells were counted in a hemocytometer. We calculated the percent of detachment by dividing the number of detached cells by the total number of cells. The percent of detached cells was calculated in three independent experiments. […] The percent of apoptotic cells was calculated as a ratio of apoptotic detached cells divided by the total number of cells in three independent experiments in several fields with the fluorescent microscope. For each experiment 300 cells per treatment were counted. In vitro Kinase Assay—10 μCi of [γ-^32P]-ATP in a kinase buffer (20 mM HEPES, pH 7.4, 5 mM MgCl2, 5 mM MnCl2, 0.1 mM Na3VO4 with 0.1 μg of purified FAK protein were incubated in a kinase buffer with 10 μCi of [γ-^32P]-ATP. The kinase reaction was performed for 5 minutes at room temperature and stopped by addition of 2× Laemmli buffer. Proteins were separated on a Ready SDS-10% PAGE gel, and the phosphorylated enolase was visualized by autoradiography. KinaseProfiler screening—Kinase specificity screening was performed with KinaseProfiler™ Service (Millipore) available on http://www.millipore.com/drugdiscovery/dd3/KinaseProfiler. […]

Experiment [2] concerns BT474 cells. Put plainly: Detachment assay, BT474. It is filed as cell-based. Conditions: 24 hours. The procedure:
Cell Viability Assay—The Cells were treated with peptides for 24 hours at different peptide concentrations. The 3-(4,5-dimethylthiazol-2-yl)-5-(3-carboxymethoxyphenyl)-2-(4-sulfophenyl)-2H-tetrazolium compound from Promega Viability kit (Madison, Ill.) was added, and the cells were incubated at 37° C. for 1-2 hours. The optical density on 96-plate was analyzed with a microplate reader at 490 nm to determine cell viability. In addition, cells were stained with trypan blue after 24 hours of treatment with Y15 and the percent of cells that stained positive were determined with a hemacytometer. Cell adhesion assay—The poly-L-Lysine or Collagen (5 μg/ml) coated 96-well plates were blocked with the blocking buffer (medium with 0.5% BSA) for 1 hour at 37 C. The cells were pre-treated with drugs for 3 hours and plated for adhesion at 4×10^5 cells. Cells were incubated at 37 C for 1 hour, fixed in 3.7% formaldehyde, washed in 0.1% BSA in PBS and stained with crystal violet (5 mg/ml in 2% ethanol) for 10 minutes. Then 2% SDS was added to the dried plated and OD at 590 nm was measured for detecting cell adhesion. Western Blotting—Cells or homogenized tumor samples were washed twice with cold 1×PBS and lysed on ice for 30 minutes in a buffer containing: 50 mM Tris-HCl (pH 7.5), 150 mM NaCl, 1% Triton-X, 0.5% NaDOC, 0.1% SDS, 5 mM EDTA, 50 mM NaF, 1 mM NaVO3, 10% glycerol and protease inhibitors: 10 μg/ml leupeptin, 10 μg/ml PMSF and 1 μg/ml aprotinin. The lysates were cleared by centrifugation at 10,000 rpm for 30 minutes at 4° C. Protein concentrations were determined using a Bio-Rad Kit. The boiled samples were loaded on Ready SDS-10% PAGE gels (Bio Rad, Inc) and used for Western blot analysis with the protein-specific antibody. Immunoblots were developed with chemiluminescence Renaissance reagent (NEN Life Science Products, Inc). Immunoprecipitation. Immunoprecipitation was performed according to the standard protocol. In brief, the pre-cleared lysates with equal amount of protein were incubated with 1 μg of primary antibody and 30 μl A/G agarose beads overnight at 4° C. The precipitates were washed with lysis buffer three times and re-suspended in 2× Laemmli buffer. The boiled samples were used for Western blotting, as described above. Detachment Assay—Cells were plated with and without inhibitors for 24 hours, and detached and attached cells were counted in a hemocytometer. We calculated the percent of detachment by dividing the number of detached cells by the total number of cells. The percent of detached cells was calculated in three independent experiments. Apoptosis Assay. […] The percent of apoptotic cells was calculated as a ratio of apoptotic detached cells divided by the total number of cells in three independent experiments in several fields with the fluorescent microscope. For each experiment 300 cells per treatment were counted. In vitro Kinase Assay—10 μCi of [γ-^32P]-ATP in a kinase buffer (20 mM HEPES, pH 7.4, 5 mM MgCl2, 5 mM MnCl2, 0.1 mM Na3VO4 with 0.1 μg of purified FAK protein were incubated in a kinase buffer with 10 μCi of [γ-^32P]-ATP. The kinase reaction was performed for 5 minutes at room temperature and stopped by addition of 2× Laemmli buffer. Proteins were separated on a Ready SDS-10% PAGE gel, and the phosphorylated enolase was visualized by autoradiography. KinaseProfiler screening—Kinase specificity screening was performed with KinaseProfiler™ Service (Millipore) available on http://www.millipore.com/drugdiscovery/dd3/KinaseProfiler. […]

For another experiment, the system named is Panc-1 cells. Put plainly: Apoptosis assay (Hoechst staining), Panc-1. Conditions: 48 hours. It is filed as cell-based, human. The protocol: as §2, with “counted.” for “counted. In vitro Kinase Assay—10 μCi of [γ-^32P]-ATP in a kinase buffer (20 mM HEPES, pH 7.4, 5 mM MgCl2, 5 mM MnCl2, 0.1 mM Na3VO4 with 0.1 μg of purified FAK protein were incubated in a kinase buffer with 10 μCi of [γ-^32P]-ATP. The kinase reaction was performed for 5 minutes at room temperature and stopped by addition of 2× Laemmli buffer. Proteins were separated on a Ready SDS-10% PAGE gel, and the phosphorylated enolase was visualized by autoradiography. KinaseProfiler screening—Kinase specificity screening was performed with KinaseProfiler™ Service (Millipore) available on http://www.millipore.com/drugdiscovery/dd3/KinaseProfiler.”

Experiment [3] concerns Y397 phosphorylation of FAK. Briefly: Western blotting with Y397 FAK antibody, BT474 cells. Type of experiment: cell-based. The note with it: 100 μM. The protocol: Cell Viability Assay—The Cells were treated with peptides for 24 hours at different peptide concentrations. The 3-(4,5-dimethylthiazol-2-yl)-5-(3-carboxymethoxyphenyl)-2-(4-sulfophenyl)-2H-tetrazolium compound from Promega Viability kit (Madison, Ill.) was added, and the cells were incubated at 37° C. for 1-2 hours. The optical density on 96-plate was analyzed with a microplate reader at 490 nm to determine cell viability. In addition, cells were stained with trypan blue after 24 hours of treatment with Y15 and the percent of cells that stained positive were determined with a hemacytometer. Cell adhesion assay—The poly-L-Lysine or Collagen (5 μg/ml) coated 96-well plates were blocked with the blocking buffer (medium with 0.5% BSA) for 1 hour at 37 C. The cells were pre-treated with drugs for 3 hours and plated for adhesion at 4×10^5 cells. Cells were incubated at 37 C for 1 hour, fixed in 3.7% formaldehyde, washed in 0.1% BSA in PBS and stained with crystal violet (5 mg/ml in 2% ethanol) for 10 minutes. Then 2% SDS was added to the dried plated and OD at 590 nm was measured for detecting cell adhesion. Western Blotting—Cells or homogenized tumor samples were washed twice with cold 1×PBS and lysed on ice for 30 minutes in a buffer containing: 50 mM Tris-HCl (pH 7.5), 150 mM NaCl, 1% Triton-X, 0.5% NaDOC, 0.1% SDS, 5 mM EDTA, 50 mM NaF, 1 mM NaVO3, 10% glycerol and protease inhibitors: 10 μg/ml leupeptin, 10 μg/ml PMSF and 1 μg/ml aprotinin. The lysates were cleared by centrifugation at 10,000 rpm for 30 minutes at 4° C. Protein concentrations were determined using a Bio-Rad Kit. The boiled samples were loaded on Ready SDS-10% PAGE gels (Bio Rad, Inc) and used for Western blot analysis with the protein-specific antibody. Immunoblots were developed with chemiluminescence Renaissance reagent (NEN Life Science Products, Inc). Immunoprecipitation. Immunoprecipitation was performed according to the standard protocol. In brief, the pre-cleared lysates with equal amount of protein were incubated with 1 μg of primary antibody and 30 μl A/G agarose beads overnight at 4° C. The precipitates were washed with lysis buffer three times and re-suspended in 2× Laemmli buffer. The boiled samples were used for Western blotting, as described above. Detachment Assay—Cells were plated with and without inhibitors for 24 hours, and detached and attached cells were counted in a hemocytometer. We calculated the percent of detachment by dividing the number of detached cells by the total number of cells. The percent of detached cells was calculated in three independent experiments. Apoptosis Assay. Detached cells were collected and fixed in 3.7% formaldehyde in 1×PBS solution for the apoptosis assay. Detection of apoptosis was done with Hoechst 33342 staining. The percent of apoptotic cells was calculated as a ratio of apoptotic detached cells divided by the total number of cells in three independent experiments in several fields with the fluorescent microscope. For each experiment 300 cells per treatment were counted. In vitro Kinase Assay—10 μCi of [γ-^32P]-ATP in a kinase buffer (20 mM HEPES, pH 7.4, 5 mM MgCl2, 5 mM MnCl2, 0.1 mM Na3VO4 with 0.1 μg of purified FAK protein were incubated in a kinase buffer with 10 μCi of [γ-^32P]-ATP. The kinase reaction was performed for 5 minutes at room temperature and stopped by addition of 2× Laemmli buffer. Proteins were separated on a Ready SDS-10% PAGE gel, and the phosphorylated enolase was visualized by autoradiography. KinaseProfiler screening—Kinase specificity screening was performed with KinaseProfiler™ Service (Millipore) available on http://www.millipore.com/drugdiscovery/dd3/KinaseProfiler. The screening was performed with 1 μM Y15, 10 μM ATP and kinase substrates on 9 recombinant kinases according to Millipore protocol. Tumor Growth in Nude Mice—Female nude mice, 6 weeks old, were purchased from Harlan Laboratory. […]
On the technique in general: A western blot detects proteins with antibodies after separation by electrophoresis.

The next experiment deals with glioma and ovarian tumor. Conditions: cited from earlier work.
The next experiment has as its target T1, FAK (Homo sapiens, UniProt Q05397).
T1 construct: made in house; host or cells: Baculovirus system
Put plainly: In vitro kinase assay with purified recombinant FAK. Conditions: positive control. Type of experiment: biochemical. The protocol: as §1

T1 sequence (Q05397 whole entry): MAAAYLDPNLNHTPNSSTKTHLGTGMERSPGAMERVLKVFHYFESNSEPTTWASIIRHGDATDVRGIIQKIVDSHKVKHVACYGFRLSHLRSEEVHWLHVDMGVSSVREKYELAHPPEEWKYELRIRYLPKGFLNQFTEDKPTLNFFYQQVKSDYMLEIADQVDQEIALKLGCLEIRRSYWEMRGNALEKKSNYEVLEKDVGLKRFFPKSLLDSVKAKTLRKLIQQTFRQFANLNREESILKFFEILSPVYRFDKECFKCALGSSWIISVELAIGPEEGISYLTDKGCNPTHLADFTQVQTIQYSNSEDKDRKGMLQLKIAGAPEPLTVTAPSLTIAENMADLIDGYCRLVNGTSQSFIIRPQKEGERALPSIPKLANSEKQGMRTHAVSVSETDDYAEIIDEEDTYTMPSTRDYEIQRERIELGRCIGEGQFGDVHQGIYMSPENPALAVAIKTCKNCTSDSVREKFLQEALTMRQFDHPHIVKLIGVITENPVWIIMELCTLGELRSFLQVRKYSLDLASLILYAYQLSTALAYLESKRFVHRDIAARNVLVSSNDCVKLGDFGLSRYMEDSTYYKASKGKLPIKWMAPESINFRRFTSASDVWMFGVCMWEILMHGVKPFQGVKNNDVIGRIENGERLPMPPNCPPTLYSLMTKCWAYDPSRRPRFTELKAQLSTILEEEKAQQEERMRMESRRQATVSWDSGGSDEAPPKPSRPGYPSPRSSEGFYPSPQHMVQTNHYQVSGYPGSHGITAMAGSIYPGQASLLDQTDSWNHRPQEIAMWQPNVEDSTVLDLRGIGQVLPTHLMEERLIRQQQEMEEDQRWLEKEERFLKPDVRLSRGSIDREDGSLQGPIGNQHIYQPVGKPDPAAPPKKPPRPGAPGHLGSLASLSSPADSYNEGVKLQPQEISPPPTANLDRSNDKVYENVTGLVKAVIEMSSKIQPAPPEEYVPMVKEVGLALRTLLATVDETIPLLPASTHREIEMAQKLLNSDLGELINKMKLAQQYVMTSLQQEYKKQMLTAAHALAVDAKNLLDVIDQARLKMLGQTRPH
Chain of IGFR kinase (P08069 31-1367): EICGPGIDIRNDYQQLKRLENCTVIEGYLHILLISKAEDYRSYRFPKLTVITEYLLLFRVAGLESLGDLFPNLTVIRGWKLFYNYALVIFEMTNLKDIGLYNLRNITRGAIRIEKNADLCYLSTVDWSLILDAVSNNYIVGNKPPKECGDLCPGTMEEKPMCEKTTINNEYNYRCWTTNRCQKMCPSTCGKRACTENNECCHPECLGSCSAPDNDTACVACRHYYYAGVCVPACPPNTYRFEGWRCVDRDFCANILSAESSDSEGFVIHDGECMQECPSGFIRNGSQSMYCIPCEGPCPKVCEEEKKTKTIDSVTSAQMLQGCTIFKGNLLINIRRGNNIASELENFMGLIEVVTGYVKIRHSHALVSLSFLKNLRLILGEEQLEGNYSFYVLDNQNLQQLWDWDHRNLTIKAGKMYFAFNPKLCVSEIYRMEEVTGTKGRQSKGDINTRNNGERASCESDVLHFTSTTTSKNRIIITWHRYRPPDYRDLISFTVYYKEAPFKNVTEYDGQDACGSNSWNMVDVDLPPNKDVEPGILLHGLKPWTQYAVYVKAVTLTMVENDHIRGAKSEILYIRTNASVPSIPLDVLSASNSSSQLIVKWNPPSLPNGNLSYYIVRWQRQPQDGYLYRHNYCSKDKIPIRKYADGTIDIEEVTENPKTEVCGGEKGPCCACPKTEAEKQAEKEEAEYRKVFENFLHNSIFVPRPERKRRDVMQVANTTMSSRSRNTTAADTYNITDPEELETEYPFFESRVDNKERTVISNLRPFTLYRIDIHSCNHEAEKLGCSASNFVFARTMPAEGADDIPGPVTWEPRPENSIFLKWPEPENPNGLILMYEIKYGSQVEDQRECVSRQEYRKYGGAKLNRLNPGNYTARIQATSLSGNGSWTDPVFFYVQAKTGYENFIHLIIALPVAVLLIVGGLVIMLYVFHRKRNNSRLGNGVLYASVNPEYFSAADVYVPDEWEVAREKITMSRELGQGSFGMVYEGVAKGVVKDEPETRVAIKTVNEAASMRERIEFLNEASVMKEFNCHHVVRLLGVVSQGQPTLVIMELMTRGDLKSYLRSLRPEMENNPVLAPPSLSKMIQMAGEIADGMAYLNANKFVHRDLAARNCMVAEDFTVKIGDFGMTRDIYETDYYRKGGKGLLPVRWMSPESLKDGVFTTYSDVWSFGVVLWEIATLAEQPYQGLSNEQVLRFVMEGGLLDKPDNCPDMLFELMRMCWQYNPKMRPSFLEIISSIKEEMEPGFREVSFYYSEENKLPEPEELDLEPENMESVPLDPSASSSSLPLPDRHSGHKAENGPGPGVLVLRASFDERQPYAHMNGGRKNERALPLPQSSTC

On to `Nc1ccn([C@@H]2O[C@H](CO)[C@@H](O)C2(F)F)c(=O)n1` [gemcitabine, reference compound], for which the tumor growth result in the experiment with Panc-1 tumor cells was “inhibited tumor growth”. For the same compound, in the experiment with caspase-3, the “apoptotic cells in tumors (caspase-3 staining)” value is 2%.

Consider `CS(=O)(=O)c1cccc(CNc2nc(Nc3ccc4c(c3)CCC(=O)N4)ncc2C(F)(F)F)c1` [PF-573,228], for which the Y397-FAK phosphorylation result in the experiment on Y397-FAK phosphorylation is listed as “effectively blocked Y397-FAK phosphorylation”. Also, the “cell growth and survival in vitro” value in the experiment with cell growth and survival is “did not inhibit cell growth and survival in vitro”.

On to `CNC(=O)c1ccccc1Nc1nc(Nc2ccc(N3CCOCC3)cc2OC)ncc1Cl` [TAE226, reference compound], for which, on IGFR kinase, the IGFR kinase inhibition result is on record as “inhibited IGFR kinase”. Further, the apoptosis with BT474 cells [1] (10 μM) is 35%; in the experiment on BT474 cells [1] (20 μM) it was 69%. Moreover, the results for the detachment in the experiment on BT474 cells [2] (10 μM) and with BT474 cells [2] (50 μM) were 30% and greater than 80%, respectively. In addition, the “level of apoptosis compared to similar doses of Y15” value in the experiment on Panc-1 cells is listed as “slightly higher level of apoptosis”. In experiment [3], the “total FAK level” value is “down-regulated total FAK”. For the same compound, the “Y397 phosphorylation of FAK” value in [3] (24 hours) is given as “completely blocked Y397 phosphorylation”. Also, in the experiment with glioma and ovarian tumor (30 mg/kg, alone), the “tumor growth in ovarian tumor model” value is “not so effective”. Further, in the experiment on glioma and ovarian tumor, the “tumor growth in vivo” value is “inhibited glioma and ovarian tumor growth in vivo”. Moreover, the FAK autophosphorylation activity result on FAK is recorded as “directly blocked autophosphorylation activity of FAK”. Moreover, the Y397-FAK phosphorylation result in the experiment on Y397-FAK phosphorylation is “effectively blocked Y397-FAK phosphorylation”.
